Here are results for two substances from patent US20050064507A1, “Determining kinase specificity” (priority 2003, published 2005).

This test relates to pPKC Ab. In words: pPKC Ab binding to peptides phosphorylated in vitro by PKC-theta. Particulars: for pPKC Ab Signal on peptide after exposure to PKC-theta phosphorylation: 30 minutes at 30° C. then overnight at 4° C.; for pPKC Ab Signal amount dependent on PKC phosphorylation: difference after minus without exposure. As to the method: Synthetic peptides chosen from those shown in Table 4 were subjected to phosphorylation by PKC-theta, Assay conditions were similar to those described herein, except that the phosphorylation reaction was for 30 minutes at 30° C. and then overnight at 4° C. The reaction mixture was applied to HB avidin-coated plates, the plates washed, and then pPKC Ab binding assayed.

Consider 76 (HVRRRRGTFKRSKLRARD) [compound 76], for which the “pPKC Ab Signal on peptide without exposure to PKC-theta” value was determined as 0.07, the “pPKC Ab Signal on peptide after exposure to PKC-theta phosphorylation” value is listed as 1.02 and the “pPKC Ab Signal amount dependent on PKC phosphorylation” value was 0.95.

Consider 121 (LRRRSLRRSNSISKSPGP) [compound 121], for which the “pPKC Ab Signal on peptide without exposure to PKC-theta” value amounted to 0.02, the “pPKC Ab Signal on peptide after exposure to PKC-theta phosphorylation” value worked out at 1.13 and the “pPKC Ab Signal amount dependent on PKC phosphorylation” value is 1.11.
